Assay results from PMC6691587, “New CXCR1/CXCR2 inhibitors represent an effective treatment for kidney or head and neck cancers sensitive or refractory to reference treatments” (Theranostics, 2019).

Key:
Assay type in all cases: cell-based, human
[1] = test system: CAL27; assay: XTT cell viability assay, CAL27 HNSCC cells; conditions: Homo sapiens, CAL-27; XTT assay, 48 h; SD 10%; mean of three experiments; read-out: IC50 27 (HNSCC)
Procedure: (§1) Fifty microliters of sodium 3′-[1-phenylaminocarbonyl)-3,4-tetrazolium]-bis(4-methoxy-6-nitro) benzene sulfonic acid hydrate (XTT) reagent was added to each well. The assay is based on the cleavage of the yellow tetrazolium salt XTT to form an orange formazan dye by metabolically active cells. This bio-reduction occurs in viable cells only and is related to NAD(P)H production through glycolysis. Therefore, the amount of formazan dye measured at 490 nm directly correlated with the number of metabolically active cells reflecting cell proliferation and viability. Each assay was performed in quadruplicate.

[2] = test system: CAL33; assay: XTT cell viability assay, CAL33 HNSCC cells; conditions: Homo sapiens, CAL-33; XTT assay, 48 h; SD 10%; mean of three experiments; read-out: IC50 33 (HNSCC)
Procedure: as §1

[3] = test system: A498; assay: XTT cell viability assay, A498 RCC cells; conditions: Homo sapiens, A498; XTT assay, 48 h; SD 10%; mean of three experiments; read-out: IC50 498 (Kidney RCC)
Procedure: as §1

[4] = test system: RCC4; assay: XTT cell viability assay, RCC4 RCC cells; conditions: Homo sapiens, RCC4, 48 h, SD 10%, mean of three experiments, read-out: IC50 R4 (Kidney RCC)
Procedure: as §1

[5] = test system: 786-O; assay: XTT cell viability assay, 786-O RCC cells; conditions: Homo sapiens, 786-0; XTT assay, 48 h; SD 10%; mean of three experiments; read-out: IC50 786 (Kidney RCC)
Procedure: as §1

[6] = test system: MDA-MD-231; assay: XTT cell viability assay, breast cancer cells; conditions: Homo sapiens, 48 h, SD 10%, mean of three experiments
Procedure: as §1

[7] = test system: OCI-AML2; assay: XTT cell viability assay, OCI-AML2 AML cells; conditions: Homo sapiens, OCI-AML2, 48 h, SD 10%, mean of three experiments, read-out: IC50 L2 (AML)
Procedure: as §1

[8] = test system: OCI-AML3; assay: XTT cell viability assay, OCI-AML3 AML cells; conditions: Homo sapiens, OCI-AML-3, 48 h, SD 10%, mean of three experiments, read-out: IC50 L3 (AML)
Procedure: as §1

[9] = test system: Molm13; assay: XTT cell viability assay, Molm13 AML cells; conditions: Homo sapiens, MOLM-13, 48 h, SD 10%, mean of three experiments
Procedure: as §1

[10] = test system: Molm14; assay: XTT cell viability assay, Molm14 AML cells; conditions: Homo sapiens, MOLM-14, 48 h, SD 10%, mean of three experiments
Procedure: as §1

[11] = test system: SKM1; assay: XTT cell viability assay, SKM1 MDS cells; conditions: Homo sapiens, SKM-1, 48 h, SD 10%, mean of three experiments, read-out: IC50 SK (MDS)
Procedure: as §1

[12] = test system: K562; assay: XTT cell viability assay, K562 CML cells; conditions: Homo sapiens, K562, 48 h, SD 10%, mean of three experiments
Procedure: as §1

Compound	IC50 [1] [µM]	IC50 [2] [µM]	IC50 [3] [µM]	IC50 [4] [µM]	IC50 [5] [µM]	IC50 [6] [µM]	IC50 [7] [µM]	IC50 [8] [µM]	IC50 [9] [µM]	IC50 [10] [µM]	IC50 [11] [µM]	IC50 [12] [µM]
O=C(Nc1cccc(Cl)c1)Nc1ccc(Cl)cc1Cl [C5]	15	25	22	20	22	> 25	22	20	20	25	22	20
O=C(Nc1ccc(Cl)cc1)Nc1ccc(Cl)cc1Cl [C6]	25	> 25	22	> 25	> 25	> 25	25	22	22	> 25	> 25	15
COc1ccc(NC(=O)Nc2nc3ccccc3s2)cc1 [C24]	> 25	> 25	> 25	15	> 25	> 25	> 25	> 25	> 25	> 25	> 25	25
Cc1ccc(NC(=S)Nc2ccccc2)cc1 [C7]	> 25	> 25	> 25	> 25	> 25	> 25	> 25	> 25	> 25	> 25	> 25	> 25
O=C(Nc1ccc(Cl)cc1)Nc1nc2ccccc2s1 [C23]	> 25	> 25	25	20	> 25	> 25	> 25	> 25	> 25	> 25	> 25	25
O=C(Nc1cccc(Cl)c1)Nc1nc2ccccc2[nH]1 [C15]	> 25	> 25	> 25	> 25	> 25	> 25	> 25	> 25	> 25	> 25	> 25	> 25
O=C(Nc1cccc(Cl)c1)Nc1ccccc1O [C11]	> 25	> 25	> 25	> 25	> 25	> 25	> 25	> 25	> 25	> 25	> 25	> 25
O=C(Nc1ccccc1)Nc1nc2ccccc2s1 [C20]	> 25	> 25	> 25	> 25	> 25	> 25	> 25	> 25	> 25	> 25	> 25	> 25
O=C(Nc1nc2ccccc2[nH]1)Nc1ccccc1Cl [C14]	> 25	> 25	> 25	> 25	> 25	> 25	> 25	> 25	> 25	> 25	> 25	> 25
Cc1ccc(NC(=O)Nc2ccc(Cl)cc2)cc1 [C3]	> 25	> 25	> 25	> 25	> 25	> 25	> 25	> 25	> 25	> 25	> 25	> 25
Cc1ccc(NC(=O)Nc2cccc(Cl)c2)cc1 [C2]	> 25	> 25	> 25	> 25	> 25	> 25	> 25	> 25	> 25	> 25	> 25	> 25
COc1ccc(NC(=O)Nc2nc3ccccc3[nH]2)cc1 [C17]	> 25	> 25	> 25	> 25	> 25	> 25	> 25	> 25	> 25	> 25	> 25	> 25
